According to the supplement of paper PMC10307832:

How the values were obtained:
Test in all cases: relative viability (nuclei count vs DMSO), 5 days (fraction); higher = more cells survive
Irinotecan + OSI-027 = compound: CCc1c2c(nc3ccc(OC(=O)N4CCC(N5CCCCC5)CC4)cc13)-c1cc3c(c(=O)n1C2)COC(=O)[C@]3(O)CC [Irinotecan] + COc1cccc2cc(-c3nc([C@H]4CC[C@H](C(=O)O)CC4)n4ncnc(N)c34)[nH]c12 [OSI-027] (partner 0.5 µM)
In short: (§1)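 Values are medians from duplicate plates. Each reflects relative viability, defined as the nuclei count of treated wells over that of vehicle wells. Lung cancer cell lines in 1536-well plates were pin-tool dosed one day after seeding with one drug alone or with a fixed anchor-drug dose plus five library-drug doses (not always all listed) in √10 steps, then fixed, stained and imaged at 4× after 5 days.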

MK-8033 + Pictilisib = compound: Cn1cc(-c2cnc3ccc4ccc(CS(=O)(=O)NCc5ccccn5)cc4c(=O)c3c2)cn1 [MK-8033] + CS(=O)(=O)N1CCN(Cc2cc3nc(-c4cccc5[nH]ncc45)nc(N4CCOCC4)c3s2)CC1 [Pictilisib] (partner 1 µM)
In short: as §1

MK-8033 + Palbociclib = compound: Cn1cc(-c2cnc3ccc4ccc(CS(=O)(=O)NCc5ccccn5)cc4c(=O)c3c2)cn1 [MK-8033] + CC(=O)c1c(C)c2cnc(Nc3ccc(N4CCNCC4)cn3)nc2n(C2CCCC2)c1=O [Palbociclib] (partner 0.5 µM)
In short: as §1

MK-8033 + Foretinib = compound: Cn1cc(-c2cnc3ccc4ccc(CS(=O)(=O)NCc5ccccn5)cc4c(=O)c3c2)cn1 [MK-8033] + COc1cc2c(Oc3ccc(NC(=O)C4(C(=O)Nc5ccc(F)cc5)CC4)cc3F)ccnc2cc1OCCCN1CCOCC1 [Foretinib] (partner 0.25 µM)
In short: as §1

| Cell Line | relative viability (Irinotecan + OSI-027; first compound 0.6325 µM) | relative viability (Irinotecan + OSI-027; first compound 2 µM) | relative viability (Irinotecan + OSI-027; first compound 6.325 µM) | relative viability (Irinotecan + OSI-027; first compound 20 µM) | relative viability (MK-8033 + Pictilisib; first compound 0.02 µM) | relative viability (MK-8033 + Pictilisib; first compound 0.06325 µM) | relative viability (MK-8033 + Pictilisib; first compound 0.2 µM) | relative viability (MK-8033 + Pictilisib; first compound 0.6325 µM) | relative viability (MK-8033 + Pictilisib; first compound 2 µM) | relative viability (MK-8033 + Palbociclib; first compound 0.02 µM) | relative viability (MK-8033 + Palbociclib; first compound 0.06325 µM) | relative viability (MK-8033 + Palbociclib; first compound 0.2 µM) | relative viability (MK-8033 + Palbociclib; first compound 0.6325 µM) | relative viability (MK-8033 + Palbociclib; first compound 2 µM) | relative viability (MK-8033 + Foretinib; first compound 0.02 µM) | relative viability (MK-8033 + Foretinib; first compound 0.06325 µM) | relative viability (MK-8033 + Foretinib; first compound 0.2 µM) | relative viability (MK-8033 + Foretinib; first compound 0.6325 µM) | relative viability (MK-8033 + Foretinib; first compound 2 µM) |
| --- | --- | --- | --- | --- | --- | --- | --- | --- | --- | --- | --- | --- | --- | --- | --- | --- | --- | --- | --- |
| 201T | 0.723 | 0.643 | 0.344 | 0.153 | 0.684 | 0.579 | 0.657 | 0.654 | 0.697 | 0.329 | 0.37 | 0.356 | 0.369 | 0.367 | 1.06 | 1.05 | 1.13 | 1.19 | 1.1 |
| A549 |  |  |  |  | 0.519 | 0.491 | 0.387 | 0.47 | 0.409 |  |  |  |  |  | 0.962 | 0.853 | 0.892 | 0.985 | 0.945 |
| A-427 |  | 0.315 | 0.244 | 0.227 | 0.676 | 0.7 | 0.677 | 0.734 | 0.644 | 0.481 | 0.552 | 0.494 | 0.508 | 0.492 | 1.04 | 1.04 | 0.903 | 1.11 | 1 |
| ABC-1 |  | 0.494 | 0.341 | 0.093 | 0.969 | 0.564 | 0.689 | 0.674 | 0.699 | 0.664 | 0.733 | 0.591 | 0.724 | 0.646 | 1.03 | 0.97 | 0.906 | 0.985 | 1.11 |
| BEN | 0.296 | 0.271 | 0.31 | 0.255 | 0.583 | 0.454 | 0.499 | 0.594 | 0.541 | 0.445 | 0.512 | 0.435 | 0.484 | 0.461 | 0.642 | 0.541 | 0.527 | 0.606 | 0.646 |
| CAL-12T |  | 0.798 | 0.357 | 0.101 | 0.515 | 0.323 | 0.339 | 0.436 | 0.388 | 0.44 | 0.436 | 0.324 | 0.579 | 0.323 | 1.05 | 1.14 | 1.03 | 1.09 | 1.11 |
| COR-L23 | 0.578 | 0.556 | 0.179 | 0.145 | 0.8 | 0.731 | 0.697 | 0.876 | 0.823 | 0.239 | 0.29 | 0.27 | 0.304 | 0.326 | 0.934 | 0.997 | 0.986 | 1.04 | 0.993 |
| COR-L 105 | 0.773 | 0.859 | 0.565 | 0.166 | 0.413 | 0.357 | 0.366 | 0.424 | 0.403 | 0.429 | 0.388 | 0.394 | 0.464 | 0.418 | 1.35 | 0.976 | 0.992 | 1.05 | 0.907 |
| Calu-6 |  |  |  |  | 0.947 | 0.766 | 0.899 | 0.85 | 0.975 |  |  |  |  |  | 0.833 | 0.815 | 0.874 | 0.914 | 0.81 |
| ChaGo-K-1 | 0.272 | 0.39 | 0.215 | 0.212 | 0.717 | 0.652 | 0.654 | 0.713 | 0.615 | 0.981 | 0.937 | 0.872 | 0.974 | 0.75 | 0.891 | 0.834 | 1.05 | 0.967 | 0.628 |
| EBC-1 |  |  |  |  | 0.354 | 0.314 | 0.222 | 0.195 | 0.144 |  |  |  |  |  | 0.103 | 0.0762 | 0.0977 | 0.126 | 0.0876 |
| EKVX | 0.664 | 0.625 | 0.49 | 0.162 | 0.433 | 0.409 | 0.442 | 0.438 | 0.476 | 0.366 | 0.322 | 0.362 | 0.39 | 0.373 | 0.849 | 0.702 | 0.79 | 0.48 | 0.968 |
| EMC-BAC-2 | 0.316 | 0.331 | 0.274 | 0.287 | 0.59 | 0.412 | 0.478 | 0.502 | 0.483 | 0.519 | 0.485 | 0.528 | 0.511 | 0.505 | 0.899 | 0.942 | 0.936 | 1.05 | 0.971 |
| EPLC-272H | 0.224 | 0.268 | 0.165 | 0.249 | 0.3 |  | 0.298 | 0.303 | 0.294 | 0.299 | 0.356 | 0.352 | 0.274 | 0.349 | 0.608 | 0.537 | 0.61 | 0.605 | 0.507 |
| H3255 | 0.502 | 0.445 | 0.373 | 0.367 | 0.558 | 0.299 | 0.48 | 0.577 | 0.441 | 0.307 | 0.361 | 0.309 | 0.307 | 0.336 | 0.848 | 0.619 | 0.831 | 0.596 | 0.757 |
| HARA | 0.148 | 0.186 | 0.142 | 0.0795 | 0.445 | 0.395 | 0.335 | 0.382 | 0.419 | 0.229 | 0.251 | 0.311 | 0.296 | 0.283 | 0.772 | 0.781 | 0.884 | 0.548 | 0.997 |
| HCC-15 |  | 0.441 | 0.198 | 0.14 | 0.829 | 0.632 | 0.698 | 0.767 | 0.754 | 0.748 | 0.625 | 0.722 | 0.699 | 0.738 | 0.977 | 0.919 | 0.994 | 1.04 | 1.02 |
| HCC-44 |  | 0.721 | 0.289 | 0.213 | 0.623 | 0.409 | 0.542 | 0.69 | 0.738 | 0.98 | 1.01 | 0.975 | 1.01 | 1.01 |  |  |  |  |  |
| HCC-78 | 0.37 | 0.35 | 0.229 | 0.235 | 0.237 | 0.152 | 0.253 |  | 0.245 | 0.516 | 0.63 | 0.451 | 0.514 | 0.511 | 0.444 |  | 0.548 | 0.575 | 0.55 |
